# Values of other authors in patent US20250382198A1, “ADSORBENT AND METHOD FOR REMOVING PER- AND/OR POLYFLUOROALKYL SUBSTANCES (PFAS) IN WATER MATRICES” (University of Central Florida Research Foundation, Inc., priority 2024, published 2025).
smiles,measurement,value
"O=C(O)C(F)(OC(F)(F)C(F)(F)C(F)(F)F)C(F)(F)F (centres unmarked) [GenX, hexafluoropropylene oxide dimer acid]",Log D,0.47
same,pKa,2.84
"O=C(O)C(F)(F)C(F)(F)C(F)(F)F [PFBA, Perfluorobutanoic acid]",Log D,−1.22
"O=C(O)C(F)(F)C(F)(F)C(F)(F)C(F)(F)C(F)(F)C(F)(F)C(F)(F)F [PFOA, Perfluorooctanoic acid]",Log D,1.58
"O=S(=O)(O)C(F)(F)C(F)(F)C(F)(F)C(F)(F)C(F)(F)C(F)(F)C(F)(F)C(F)(F)F [PFOS, Perfluorooctanesulfonic acid]",Log D,3.05
